Tests used:
Format in all cases: in vivo
[1] = tested on: sedge, umbrella (small-flower umbrella sedge, Cyperus difformis); test: Test B flooded paddy test, umbrella sedge; conditions: 250 g ai/ha; applied to paddy water at 2-leaf stage; 13 to 15 d; scale 0 no effect to 100 complete control
Outline: (§1)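 Plants at the 2-leaf stage were flooded to 3 cm above soil, and test compounds were applied directly into the paddy water, which was held at that depth throughout. After 13 to 15 d in a greenhouse, injury was rated visually against untreated controls on a 0–100 scale (0 no effect, 100 complete control).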

corn (Zea mays) [2] = test: Test A preemergence, corn; conditions: visual rating after approx. 10 d, 0 to 100 scale, 0 no effect, 100 complete control
Excerpt: (§2) Seeds of plant species selected from barnyardgrass (Echinochloa crus-galli), crabgrass (large crabgrass, Digitaria sanguinalis), kochia (Kochia scoparia), ragweed (common ragweed, Ambrosia elatior), morningglory (Ipomoea spp.), velvetleaf (Abutilon theophrasti), ryegrass, Italian (Italian ryegrass, Lolium multiflorum), foxtail, giant (giant foxtail, Setaria faberii), wheat (Triticum aestivum), corn (Zea mays), and pigweed (Amaranthus retroflexus), were planted into a blend of loam soil and sand and treated preemergence with a directed soil spray using test chemicals formulated in a non-phytotoxic solvent mixture which included a surfactant. At the same time, plants selected from these crop and weed species and also blackgrass (Alopecurus myosuroides), and galium (catchweed bedstraw, Galium aparine), were planted in pots containing the same blend of loam soil and sand and treated with postemergence applications of test chemicals formulated in the same manner. Plants ranged in height from 2 to 10 cm and were in the one- to two-leaf stage for the postemergence treatment. Treated plants and untreated controls were maintained in a greenhouse for approximately 10 d, after which time all treated plants were compared to untreated controls and visually evaluated for injury. Plant response ratings, summarized in Table A, are based on a 0 to 100 scale where 0 is no effect and 100 is complete control. A dash (-) response means no test result.

[3] = tested on: pigweed (Amaranthus retroflexus); test: Test A postemergence, pigweed; conditions: visual rating after approx. 10 d, 0 to 100 scale, 0 no effect, 100 complete control
Outline: (§3)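 Following ~10 d greenhouse growth, treated plants were compared with untreated controls and injury rated 0 (no effect) to 100 (complete control). Treatments: directed spray onto seeded loam/sand soil, or onto one- to two-leaf plants 2–10 cm tall, compound formulated in solvent with surfactant.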

[4] = tested on: foxtail, giant (giant foxtail, Setaria faberii); test: Test A postemergence, giant foxtail; conditions: visual rating after approx. 10 d, 0 to 100 scale, 0 no effect, 100 complete control
Outline: as §3

[5] = tested on: barnyardgrass (Echinochloa crus-galli); test: Test A preemergence, barnyardgrass; conditions: visual rating after approx. 10 d, 0 to 100 scale, 0 no effect, 100 complete control
Outline: as §3

[6] = tested on: velvetleaf (Abutilon theophrasti); test: Test A postemergence, velvetleaf; conditions: visual rating after approx. 10 d, 0 to 100 scale, 0 no effect, 100 complete control
Excerpt: as §2

[7] = tested on: morningglory (Ipomoea spp.); test: Test A postemergence, morningglory; conditions: visual rating after approx. 10 d, 0 to 100 scale, 0 no effect, 100 complete control
Excerpt: as §2

[8] = tested on: pigweed (Amaranthus retroflexus); test: Test A preemergence, pigweed; conditions: visual rating after approx. 10 d, 0 to 100 scale, 0 no effect, 100 complete control
Outline: as §3

rice (Oryza sativa) = test: Test B flooded paddy test, rice; conditions: 250 g ai/ha; applied to paddy water at 2-leaf stage; 13 to 15 d; scale 0 no effect to 100 complete control
Outline: as §1

[9] = tested on: morningglory (Ipomoea spp.); test: Test A preemergence, morningglory; conditions: visual rating after approx. 10 d, 0 to 100 scale, 0 no effect, 100 complete control
Excerpt: as §2

[10] = tested on: wheat (Triticum aestivum); test: Test A preemergence, wheat; conditions: visual rating after approx. 10 d, 0 to 100 scale, 0 no effect, 100 complete control
Excerpt: as §2

[11] = tested on: barnyardgrass (Echinochloa crus-galli); test: Test B flooded paddy test, barnyardgrass; conditions: 250 g ai/ha; applied to paddy water at 2-leaf stage; 13 to 15 d; scale 0 no effect to 100 complete control
Outline: as §1

[12] = tested on: ducksalad (Heteranthera limosa); test: Test B flooded paddy test, ducksalad; conditions: 250 g ai/ha; applied to paddy water at 2-leaf stage; 13 to 15 d; scale 0 no effect to 100 complete control
Outline: as §1

[13] = tested on: foxtail, giant (giant foxtail, Setaria faberii); test: Test A preemergence, giant foxtail; conditions: visual rating after approx. 10 d, 0 to 100 scale, 0 no effect, 100 complete control
Outline: as §3

[14] = tested on: crabgrass (large crabgrass, Digitaria sanguinalis); test: Test A preemergence, crabgrass; conditions: visual rating after approx. 10 d, 0 to 100 scale, 0 no effect, 100 complete control
Excerpt: as §2

[15] = tested on: velvetleaf (Abutilon theophrasti); test: Test A preemergence, velvetleaf; conditions: visual rating after approx. 10 d, 0 to 100 scale, 0 no effect, 100 complete control
Excerpt: as §2

[16] = tested on: barnyardgrass (Echinochloa crus-galli); test: Test A postemergence, barnyardgrass; conditions: visual rating after approx. 10 d, 0 to 100 scale, 0 no effect, 100 complete control
Outline: as §3

[17] = tested on: crabgrass (large crabgrass, Digitaria sanguinalis); test: Test A postemergence, crabgrass; conditions: visual rating after approx. 10 d, 0 to 100 scale, 0 no effect, 100 complete control
Excerpt: as §2

[18] = tested on: wheat (Triticum aestivum); test: Test A postemergence, wheat; conditions: visual rating after approx. 10 d, 0 to 100 scale, 0 no effect, 100 complete control
Outline: as §3

corn (Zea mays) [19] = test: Test A postemergence, corn; conditions: 1000 g ai/ha, visual rating after approx. 10 d, 0 to 100 scale, 0 no effect, 100 complete control
Outline: as §3

O=C(Nc1ccccc1F)C1C(=O)OCC1c1ccc(F)c(F)c1 (racemic) [Compound 4]
20: Plant response rating, Flood, Barnyardgrass [11]
70: Plant response rating, Foxtail, Giant ([4]; 1000 g ai/ha) | Plant response rating, Barnyardgrass ([5]; 1000 g ai/ha) | Plant response rating, Barnyardgrass ([16]; 1000 g ai/ha)
15: Plant response rating, Flood, Rice (rice (Oryza sativa))
90: Plant response rating, Crabgrass ([14]; 1000 g ai/ha) | Plant response rating, Crabgrass ([17]; 1000 g ai/ha)
0: Plant response rating, Flood, Sedge, Umbrella [1] | Plant response rating, Corn (corn (Zea mays) [2]; 1000 g ai/ha) | Plant response rating, Pigweed ([3]; 1000 g ai/ha) | Plant response rating, Velvetleaf ([6]; 1000 g ai/ha) | Plant response rating, Morningglory ([7]; 1000 g ai/ha) | Plant response rating, Pigweed ([8]; 1000 g ai/ha) | Plant response rating, Morningglory ([9]; 1000 g ai/ha) | Plant response rating, Wheat ([10]; 1000 g ai/ha) | Plant response rating, Flood, Ducksalad [12] | Plant response rating, Velvetleaf ([15]; 1000 g ai/ha) | Plant response rating, Wheat ([18]; 1000 g ai/ha)
80: Plant response rating, Foxtail, Giant ([13]; 1000 g ai/ha)

O=C(Nc1ccccc1Cl)C1C(=O)OCC1c1ccc(F)cc1 (racemic) [Compound 1]
20: Plant response rating, Pigweed ([3]; 1000 g ai/ha) | Plant response rating, Barnyardgrass ([16]; 1000 g ai/ha)
70: Plant response rating, Crabgrass ([14]; 1000 g ai/ha)
60: Plant response rating, Crabgrass ([17]; 1000 g ai/ha)
0: Plant response rating, Corn (corn (Zea mays) [2]; 1000 g ai/ha) | Plant response rating, Barnyardgrass ([5]; 1000 g ai/ha) | Plant response rating, Velvetleaf ([6]; 1000 g ai/ha) | Plant response rating, Morningglory ([7]; 1000 g ai/ha) | Plant response rating, Pigweed ([8]; 1000 g ai/ha) | Plant response rating, Morningglory ([9]; 1000 g ai/ha) | Plant response rating, Wheat ([10]; 1000 g ai/ha) | Plant response rating, Velvetleaf ([15]; 1000 g ai/ha) | Plant response rating, Corn (corn (Zea mays) [19]) | Plant response rating, Wheat ([18]; 1000 g ai/ha)
40: Plant response rating, Foxtail, Giant ([4]; 1000 g ai/ha) | Plant response rating, Foxtail, Giant ([13]; 1000 g ai/ha)

Cc1ccccc1NC(=O)C1C(=O)OCC1c1ccc(F)cc1 (racemic) [Compound 5]
50: Plant response rating, Barnyardgrass ([16]; 1000 g ai/ha)
0: Plant response rating, Corn (corn (Zea mays) [2]; 1000 g ai/ha) | Plant response rating, Pigweed ([3]; 1000 g ai/ha) | Plant response rating, Velvetleaf ([6]; 1000 g ai/ha) | Plant response rating, Morningglory ([7]; 1000 g ai/ha) | Plant response rating, Pigweed ([8]; 1000 g ai/ha) | Plant response rating, Morningglory ([9]; 1000 g ai/ha) | Plant response rating, Wheat ([10]; 1000 g ai/ha) | Plant response rating, Velvetleaf ([15]; 1000 g ai/ha) | Plant response rating, Corn (corn (Zea mays) [19]) | Plant response rating, Wheat ([18]; 1000 g ai/ha)
60: Plant response rating, Foxtail, Giant ([4]; 1000 g ai/ha) | Plant response rating, Barnyardgrass ([5]; 1000 g ai/ha)
80: Plant response rating, Crabgrass ([14]; 1000 g ai/ha) | Plant response rating, Crabgrass ([17]; 1000 g ai/ha)
70: Plant response rating, Foxtail, Giant ([13]; 1000 g ai/ha)

O=C(Nc1ccccc1Cl)C1C(=O)OCC1c1ccc(F)c(F)c1 (racemic) [Compound 3]
0: Plant response rating, Flood, Sedge, Umbrella [1] | Plant response rating, Corn (corn (Zea mays) [2]; 125 g ai/ha) | Plant response rating, Corn (corn (Zea mays) [2]; 500 g ai/ha) | Plant response rating, Pigweed ([3]; 125 g ai/ha) | Plant response rating, Pigweed ([3]; 500 g ai/ha) | Plant response rating, Barnyardgrass ([5]; 125 g ai/ha) | Plant response rating, Velvetleaf ([6]; 125 g ai/ha) | Plant response rating, Velvetleaf ([6]; 500 g ai/ha) | Plant response rating, Morningglory ([7]; 125 g ai/ha) | Plant response rating, Morningglory ([7]; 500 g ai/ha) | Plant response rating, Pigweed ([8]; 125 g ai/ha) | Plant response rating, Pigweed ([8]; 500 g ai/ha) | Plant response rating, Flood, Rice (rice (Oryza sativa)) | Plant response rating, Morningglory ([9]; 125 g ai/ha) | Plant response rating, Morningglory ([9]; 500 g ai/ha) | Plant response rating, Wheat ([10]; 125 g ai/ha) | Plant response rating, Wheat ([10]; 500 g ai/ha) | Plant response rating, Flood, Barnyardgrass [11] | Plant response rating, Flood, Ducksalad [12] | Plant response rating, Velvetleaf ([15]; 125 g ai/ha) | Plant response rating, Velvetleaf ([15]; 500 g ai/ha) | Plant response rating, Barnyardgrass ([16]; 125 g ai/ha) | Plant response rating, Barnyardgrass ([16]; 500 g ai/ha) | Plant response rating, Wheat ([18]; 125 g ai/ha) | Plant response rating, Wheat ([18]; 500 g ai/ha)
70: Plant response rating, Foxtail, Giant ([13]; 125 g ai/ha) | Plant response rating, Crabgrass ([17]; 500 g ai/ha)
60: Plant response rating, Foxtail, Giant ([4]; 500 g ai/ha) | Plant response rating, Crabgrass ([17]; 125 g ai/ha)
50: Plant response rating, Foxtail, Giant ([4]; 125 g ai/ha) | Plant response rating, Crabgrass ([14]; 500 g ai/ha)
80: Plant response rating, Foxtail, Giant ([13]; 500 g ai/ha)
40: Plant response rating, Crabgrass ([14]; 125 g ai/ha)
30: Plant response rating, Barnyardgrass ([5]; 500 g ai/ha)

O=C(Nc1ccccc1C(F)(F)F)C1C(=O)OCC1c1ccc(F)cc1 (stereo not shown) [Compound 6]
80: Plant response rating, Foxtail, Giant ([4]; 1000 g ai/ha) | Plant response rating, Foxtail, Giant ([13]; 1000 g ai/ha) | Plant response rating, Crabgrass ([14]; 1000 g ai/ha) | Plant response rating, Crabgrass ([17]; 1000 g ai/ha)
20: Plant response rating, Barnyardgrass ([5]; 1000 g ai/ha) | Plant response rating, Barnyardgrass ([16]; 1000 g ai/ha)
0: Plant response rating, Flood, Sedge, Umbrella [1] | Plant response rating, Corn (corn (Zea mays) [2]; 1000 g ai/ha) | Plant response rating, Pigweed ([3]; 1000 g ai/ha) | Plant response rating, Velvetleaf ([6]; 1000 g ai/ha) | Plant response rating, Morningglory ([7]; 1000 g ai/ha) | Plant response rating, Pigweed ([8]; 1000 g ai/ha) | Plant response rating, Flood, Rice (rice (Oryza sativa)) | Plant response rating, Morningglory ([9]; 1000 g ai/ha) | Plant response rating, Wheat ([10]; 1000 g ai/ha) | Plant response rating, Flood, Barnyardgrass [11] | Plant response rating, Flood, Ducksalad [12] | Plant response rating, Velvetleaf ([15]; 1000 g ai/ha) | Plant response rating, Corn (corn (Zea mays) [19]) | Plant response rating, Wheat ([18]; 1000 g ai/ha)

O=C(Nc1ccccc1F)C1C(=O)OCC1c1ccc(F)cc1 (racemic) [Compound 2]
0: Plant response rating, Corn (corn (Zea mays) [2]; 1000 g ai/ha) | Plant response rating, Pigweed ([3]; 1000 g ai/ha) | Plant response rating, Foxtail, Giant ([4]; 1000 g ai/ha) | Plant response rating, Velvetleaf ([6]; 1000 g ai/ha) | Plant response rating, Morningglory ([7]; 1000 g ai/ha) | Plant response rating, Pigweed ([8]; 1000 g ai/ha) | Plant response rating, Morningglory ([9]; 1000 g ai/ha) | Plant response rating, Wheat ([10]; 1000 g ai/ha) | Plant response rating, Velvetleaf ([15]; 1000 g ai/ha) | Plant response rating, Barnyardgrass ([16]; 1000 g ai/ha) | Plant response rating, Corn (corn (Zea mays) [19]) | Plant response rating, Wheat ([18]; 1000 g ai/ha)
30: Plant response rating, Barnyardgrass ([5]; 1000 g ai/ha)
80: Plant response rating, Crabgrass ([14]; 1000 g ai/ha)
40: Plant response rating, Crabgrass ([17]; 1000 g ai/ha)
50: Plant response rating, Foxtail, Giant ([13]; 1000 g ai/ha)

— patent US10582709B2, “Butyrolactones as herbicides” (FMC Corporation, priority 2015, dated 2020)
